In PubChem BioAssay AID2060622 (Molecular Pharmacology Branch, DTP, NCI, 2025):

System: 242566-281-R-J2-PDC complex spheroid viability
Experiment: Anticancer human tumor 242566-281-R-J2-PDC patient-derived pancreatic carcinoma cell line growth inhibition [CLK]
Conditions: for IC50: curve of first compound; for viability, T/C: stronger effect = lower value
Source text: A high-throughput screen of multi-cell type tumor spheroids was designed to identify active combinations of […] and targeted small molecules. Complex spheroids include a stromal component modeled by human endothelial cells (HUVEC) and fibroblasts modeled by human mesenchymal stem cells (MSCs). The concentration ranges selected for each drug and investigational agent were based upon clinically achievable concentrations if the clinical Cmax of the agent was known.
Compounds. The drugs and investigational agents: cirtuvivint (SM08502; NSC835563), CC-671 (NSC850746), vemurafenib (NSC761431), tapotoclax (NSC804041), sotorasib (NSC818433), adagrasib (NSC831453), MRTX-1133 (NSC836407), BAY2416964 (NSC825713), copanlisib (NSC816437), inavolisib (NSC800729), abemaciclib (NSC768073), osimertinib (NSC779217), entinostat (NSC756642), eltanexor (KPT-8602, NSC794443), venetoclax (NSC766270), ceralasertib (NSC777638), bortezomib (NSC756655), olaparib (NSC753686), talazoparib (NSC767125), alisertib (NSC759677), peposertib (NSC802822), gemcitabine (NSC613327), 5-fluorouracil (NSC19893), SN-38 (NSC673596), oxaliplatin (NSC266046), paclitaxel (NSC125973), and doxorubicin (NSC123127), were obtained from the National Cancer Institute (NCI) Developmental Therapeutics Program Chemical Repository. The FDA-approved anticancer drug set is available from the Developmental Therapeutics Program at https://dtp.cancer.gov/organization/dscb/obtaining/available plates.htm. […] The stock solutions were prepared in dimethyl sulfoxide (DMSO, Sigma-Aldrich, St. Louis, MO, cat. D2650), except for the platinum complexes which were prepared in saline (Quality Biological, Gaithersburg, MD, cat. 114-055-101), at 800-fold the tested concentration and stored at -70 degrees C prior to their use. All drugs and investigational agents were tested over a range starting from a high concentration at or near the clinical Cmax and decreasing in half-log increments. If the clinical Cmax for an agent had not been determined, the highest concentration tested was 10 microM.
Cell Culture. All cells were maintained in an incubator at 37 degrees C and 5% CO2 with 95% humidity. The PDC lines were cultured according to standard operating procedures established by the NCI PDMR. Briefly, all PDCs were thawed and cultured in Matrigel-coated flasks prepared with a working solution of 1X Ham's F-12 nutrient mix, without supplementation (Invitrogen, Waltham, MA, cat. 11765054), 100 U/mL penicillin-streptomycin (Invitrogen, cat. 15140122), and 2.5% Matrigel (Corning Inc., Corning, NY, cat. 354248) for the first three passages. The 947758-054-R-J2-PDC line was cultured in 6B/Colon 1A media, which includes advanced DMEM/F-12 (Thermo Fisher Scientific, cat. 12634028), 10 mM HEPES (Thermo Fisher Scientific, cat. 15630080), 1X GlutaMAX supplement (Thermo Fisher Scientific, cat. 35050061), 0.1 mg/mL primocin (InvivoGen, cat. ant-pm-2), 10% defined fetal bovine serum, heat inactivated (HyClone Laboratories Inc., cat. SH30070.03HI), 1.25 mM N-Acetyl-L-cysteine (Sigma-Aldrich, cat. A9165), 10 mM nicotinamide (Sigma-Aldrich, cat. N0636), 1X B-27 supplement (Thermo Fisher Scientific, cat. 17504044), 1X N-2 supplement (Thermo Fisher Scientific, cat. 17502048), and 10 microM Y-27632 dihydrochloride (Tocris Bioscience, cat. 1254). The 876862-298-R-J1-PDC was cultured in 6E media, which includes all 6B/Colon 1A media components plus 50% L-WRN conditioned media (ATCC, cat. CRL-3276), 50 ng/mL recombinant human EGF recombinant protein (hEGF; Thermo Fisher Scientific, cat. PHG0311), 10 ng/mL recombinant human fibroblast growth factor 10 (hGFG-10; PeproTech, cat. 100-26), 1 ng/mL recombinant human fibroblast growth factor 2 (hFGF-2; PeproTech, cat. 100-18B), and 1 µM prostaglandin E2 (PGE2; Tocris, cat. 2296). The 227483-062-R1-J1-PDC line was cultured in Panc media, containing all 6E components except hFGF-2, with the addition of 500 nM SB-431542 (Selleckchem, cat. S1067) and 10 nM gastrin (Tocris, cat. 3006). […]

[1] = second compound 0.0316 µM, first compound 0.0316 µM
[2] = second compound 0.0316 µM, first compound 0.1 µM
[3] = second compound 0.0316 µM, first compound 0.316 µM
[4] = second compound 0.0316 µM, first compound 1 µM
[5] = second compound 0.1 µM, first compound 0.0316 µM
[6] = second compound 0.1 µM, first compound 0.1 µM
[7] = second compound 0.1 µM, first compound 0.316 µM
[8] = second compound 0.1 µM, first compound 1 µM
[9] = second compound 0.316 µM, first compound 0.0316 µM
[10] = second compound 0.316 µM, first compound 0.1 µM
[11] = second compound 0.316 µM, first compound 0.316 µM
[12] = second compound 0.316 µM, first compound 1 µM
[13] = second compound 1 µM, first compound 0.0316 µM
[14] = second compound 1 µM, first compound 0.1 µM
[15] = second compound 1 µM, first compound 0.316 µM
[16] = second compound 1 µM, first compound 1 µM
[17] = second compound 3.16 µM, first compound 0.0316 µM
[18] = second compound 3.16 µM, first compound 0.1 µM
[19] = second compound 3.16 µM, first compound 0.316 µM
[20] = second compound 3.16 µM, first compound 1 µM
[21] = second compound 10 µM, first compound 0.0316 µM
[22] = second compound 10 µM, first compound 0.1 µM
[23] = second compound 10 µM, first compound 0.316 µM
[24] = second compound 10 µM, first compound 1 µM
[25] = second compound 0.0316 µM, first compound 0.00316 µM
[26] = second compound 0.0316 µM, first compound 0.01 µM
[27] = second compound 0.1 µM, first compound 0.00316 µM
[28] = second compound 0.1 µM, first compound 0.01 µM
[29] = second compound 0.316 µM, first compound 0.00316 µM
[30] = second compound 0.316 µM, first compound 0.01 µM
[31] = second compound 1 µM, first compound 0.00316 µM
[32] = second compound 1 µM, first compound 0.01 µM
[33] = second compound 3.16 µM, first compound 0.00316 µM
[34] = second compound 3.16 µM, first compound 0.01 µM
[35] = second compound 10 µM, first compound 0.00316 µM
[36] = second compound 10 µM, first compound 0.01 µM
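Also: spheroids exposed to compounds for 7 days before readout.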
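For viability, T/C in this document: 100% = DMSO vehicle control wells.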

CC(Nc1ccc2c(c1)OCCn1cc(N3C(=O)OCC3C(F)F)nc1-2)C(N)=O (stereo unspecified) + CN1CCN(c2cc(C(=O)Nc3cc4cc(-c5cnn(C)c5)ccc4cn3)ccn2)CC1
IC50 (second compound 0.0316 µM): 829 nM | IC50 (second compound 0.1 µM): 428 nM | IC50 (second compound 0.316 µM): < 31.6 nM | IC50 (second compound 1 µM): < 31.6 nM | IC50 (second compound 3.16 µM): < 31.6 nM | IC50 (second compound 10 µM): < 31.6 nM | viability, T/C [1]: 98.6% | viability, T/C [2]: 85.9% | viability, T/C [3]: 66.1% | viability, T/C [4]: 47.1% | viability, T/C (second compound 0.0316 µM, first compound 3.16 µM): 30.2% | viability, T/C (second compound 0.0316 µM, first compound 10 µM): 19.6% | viability, T/C [5]: 89.7% | viability, T/C [6]: 71.6% | viability, T/C [7]: 54.1% | viability, T/C [8]: 37.7% | viability, T/C (second compound 0.1 µM, first compound 3.16 µM): 27.5% | viability, T/C (second compound 0.1 µM, first compound 10 µM): 15.9% | viability, T/C [9]: 30.8% | viability, T/C [10]: 28.4% | viability, T/C [11]: 24% | viability, T/C [12]: 16.5% | viability, T/C (second compound 0.316 µM, first compound 3.16 µM): 11.1% | viability, T/C (second compound 0.316 µM, first compound 10 µM): 6.49% | viability, T/C [13]: 3.7% | viability, T/C [14]: 3.4% | viability, T/C [15]: 2.95% | viability, T/C [16]: 2.95% | viability, T/C (second compound 1 µM, first compound 3.16 µM): 2.35% | viability, T/C (second compound 1 µM, first compound 10 µM): 1.83% | viability, T/C [17]: 6.09% | viability, T/C [18]: 5.94% | viability, T/C [19]: 5.25% | viability, T/C [20]: 4.35% | viability, T/C (second compound 3.16 µM, first compound 3.16 µM): 3.81% | viability, T/C (second compound 3.16 µM, first compound 10 µM): 3.86% | viability, T/C [21]: 2.15% | viability, T/C [22]: 2.04% | viability, T/C [23]: 1.6% | viability, T/C [24]: 1.88% | viability, T/C (second compound 10 µM, first compound 3.16 µM): 1.85% | viability, T/C (second compound 10 µM, first compound 10 µM): 1.04%

CCN1CCN(Cc2ccc(Nc3ncc(F)c(-c4cc(F)c5nc(C)n(C(C)C)c5c4)n3)nc2)CC1 + CN1CCN(c2cc(C(=O)Nc3cc4cc(-c5cnn(C)c5)ccc4cn3)ccn2)CC1
IC50 (second compound 0.0316 µM): > 1000 nM | IC50 (second compound 0.1 µM): > 1000 nM | IC50 (second compound 0.316 µM): < 3.16 nM | IC50 (second compound 1 µM): < 3.16 nM | IC50 (second compound 3.16 µM): < 3.16 nM | IC50 (second compound 10 µM): < 3.16 nM | viability, T/C [25]: 89.9% | viability, T/C [26]: 109% | viability, T/C [1]: 101% | viability, T/C [2]: 109% | viability, T/C [3]: 122% | viability, T/C [4]: 138% | viability, T/C [27]: 91.7% | viability, T/C [28]: 83.6% | viability, T/C [5]: 95.5% | viability, T/C [6]: 96.3% | viability, T/C [7]: 122% | viability, T/C [8]: 123% | viability, T/C [29]: 39.4% | viability, T/C [30]: 40.8% | viability, T/C [9]: 48.7% | viability, T/C [10]: 54.3% | viability, T/C [11]: 69.4% | viability, T/C [12]: 61.1% | viability, T/C [31]: 5.41% | viability, T/C [32]: 4.89% | viability, T/C [13]: 5.53% | viability, T/C [14]: 6.44% | viability, T/C [15]: 9.19% | viability, T/C [16]: 9.16% | viability, T/C [33]: 6.93% | viability, T/C [34]: 7.07% | viability, T/C [17]: 6.34% | viability, T/C [18]: 7.18% | viability, T/C [19]: 8.35% | viability, T/C [20]: 8.64% | viability, T/C [35]: 2.36% | viability, T/C [36]: 1.58% | viability, T/C [21]: 1.75% | viability, T/C [22]: 1.54% | viability, T/C [23]: 1.24% | viability, T/C [24]: 0.71%

COc1c(OCCCN2CCOCC2)ccc2c3n(c(=NC(=O)c4cnc(N)nc4)nc12)CCN3 + CN1CCN(c2cc(C(=O)Nc3cc4cc(-c5cnn(C)c5)ccc4cn3)ccn2)CC1
IC50 (second compound 0.0316 µM): 25.5 nM | IC50 (second compound 0.1 µM): 19.4 nM | IC50 (second compound 0.316 µM): < 3.16 nM | IC50 (second compound 1 µM): < 3.16 nM | IC50 (second compound 3.16 µM): < 3.16 nM | IC50 (second compound 10 µM): < 3.16 nM | viability, T/C [25]: 91% | viability, T/C [26]: 74.5% | viability, T/C [1]: 43.5% | viability, T/C [2]: 22.1% | viability, T/C [3]: 12.3% | viability, T/C [4]: 7.95% | viability, T/C [27]: 85.6% | viability, T/C [28]: 69.5% | viability, T/C [5]: 34.6% | viability, T/C [6]: 18.1% | viability, T/C [7]: 9.35% | viability, T/C [8]: 6.4% | viability, T/C [29]: 34% | viability, T/C [30]: 28.9% | viability, T/C [9]: 17.4% | viability, T/C [10]: 6.56% | viability, T/C [11]: 4.83% | viability, T/C [12]: 5.47% | viability, T/C [31]: 3.43% | viability, T/C [32]: 3.63% | viability, T/C [13]: 3.24% | viability, T/C [14]: 2% | viability, T/C [15]: 1.83% | viability, T/C [16]: 1.24% | viability, T/C [33]: 6.71% | viability, T/C [34]: 6.19% | viability, T/C [17]: 5.45% | viability, T/C [18]: 3.96% | viability, T/C [19]: 3.56% | viability, T/C [20]: 2.53% | viability, T/C [35]: 2.33% | viability, T/C [36]: 2.32% | viability, T/C [21]: 1.35% | viability, T/C [22]: 1.56% | viability, T/C [23]: 1.19% | viability, T/C [24]: 1.26%
